Assay results taken from patent US6670363B1, “Azole compounds as therapeutic agents for fungal infections” (Ranbaxy Laboratories Limited, priority 2000, dated 2003).
In brackets after ≈: the same amount, converted by molar mass.

Test system: A. fumigatus s 1008
Assay: In vitro MIC, NCCLS M38P broth method (RPMI 1640/MOPS pH7), Aspergillus fumigatus
Format: cell-based
Details: A. fumigatus s 1008

| Compound | MIC (υg/ml) (A. fumigatus s 1008) [µg/mL] |
| --- | --- |
| OC(COc1ccc(N2CCN(NC(=S)Nc3cccc4ccccc34)CC2)cc1)(Cn1cncn1)c1ccc(F)cc1F (centres unmarked) [Compound 68, 3-{4-[4-(1-Napthylthioureido)piperazinyl]phenoxy}-2-(2,4-difluorophenyl)-1-(1H-1,2,4-triazol-1-yl)-propan-2-ol] | >12.5 |
| Cc1ccc(NC(=S)Nc2ccc(N(C)CC(O)(Cn3cncn3)c3ccc(F)cc3F)cc2)cc1 (centres unmarked) [Compound 83, 3-{N-[4-(p-Tolylthioureido)-phenyl]-N-methyl}-2-(2,4-difluorophenyl)-1-(1H-1,2,4-triazolyl)-propan-3-amino-2-ol] | >12.5 |
| CC(Oc1ccc(N2CCN(NC(=O)Nc3ccc(C(F)(F)F)cc3)CC2)cc1)C(O)(Cn1cncn1)c1ccc(F)cc1F (centres unmarked) [Compound 79, 1-{4-[4-(4-Trifluoromethylphenylureido)piperazinyl]phenoxy}-2-(2,4-difluorophenyl)-1-methyl-3-(1H-1,2,4-triazol-1-yl)-propan-2-ol] | 8 (≈ 12.7 µM) |
| CN(CC(O)(Cn1cncn1)c1ccc(F)cc1F)c1ccc(NC(=O)Nc2ccc(CC(=O)O)cc2)cc1 (centres unmarked) [Compound 87] | >12.5 |
| 3-{4-[4-(4-chlorophenyl-N-ethylureido)-piperazinyl]-phenoxy}-2-(2,4-difluorophenyl)-1-(1H-1,2,4-triazolyl)-2-ethoxy-3-propylamine [Compound 74] | >12.5 |
| CC(C)NC(=S)NN1CCN(c2ccc(-n3cnn(CC(O)(Cn4cncn4)c4ccc(F)cc4F)c3=O)cc2)CC1 (centres unmarked) [Compound 90, 2-[2-(2,4-Difluorophenyl)-2-hydroxy-3-(1H-1,2,4-triazol-1-yl)propyl]-4-{4-[4-(isopropylthiouredio)-1-piperazinyl]phenyl}-3-(2H,4H)-1,2,4-triazolone] | >12.5 |
| OC(COc1ccc(N2CCN(NC(=S)Nc3ccc(Cl)cc3)CC2)cc1)(Cn1cncn1)c1ccc(F)cc1F (centres unmarked) [Compound 66, 3-{4-[4-(4-Chlorophenylthioureido)piperazinyl]phenoxy}-2-(2,4-difluorophenyl)-1-(1H-1,2,4-triazol-1-yl)-propan-2-ol] | >12.5 |
| O=c1n(-c2ccc(N3CCN(NC(=S)Nc4ccc(Cl)cc4)CC3)cc2)cnn1CC(O)(Cn1cncn1)c1ccc(F)cc1F (centres unmarked) [Compound 92, 2-[2-(2,4-Difluorophenyl)-2-hydroxy-3-(1H-1,2,4-triazol-1-yl)propyl]-4-{4-[4-(4-chlorophenylthiouredio)-1-piperazinyl]phenyl}-3-(2H,4H)-1,2,4-triazolone] | >12.5 |
| OC(COc1ccc(N2CCN(NC(=S)Nc3ccc(C(F)(F)F)cc3)CC2)cc1)(Cn1cncn1)c1ccc(F)cc1F (centres unmarked) [Compound 70, 3-{4-[4-(4-Trifluoromethylphenylthioureido)piperazinyl]phenoxy}-2-(2,4-difluorophenyl)-1-(1H-1,2,4-triazol-1-yl)-propan-2-ol] | >12.5 |
| O=C(Nc1ccc(Cl)cc1Cl)NN1CCN(c2ccc(OCC(O)(Cn3cncn3)c3ccc(F)cc3F)cc2)CC1 (centres unmarked) [Compound 72, 3-{4-[4-(2,4-Dichlorophenylureido)piperazinyl]phenoxy}-2-(2,4-difluorophenyl)-1-(1H-1,2,4-triazol-1-yl)-propan-2-ol] | >12.5 |
| COC(COc1ccc(N2CCN(NC(=O)N(C)c3ccc(Cl)cc3)CC2)cc1)(Cn1cncn1)c1ccc(F)cc1F (centres unmarked) [Compound 75, 3-{4-[4-N-(4-Chlorophenyl)-N-(methylureido)-piperazinyl]-phenoxy}-2-(2,4-difluorophenyl)-1-(1H-1,2,4-triazolyl)-2-methoxypropane] | >12.5 |
| CN(CC(O)(Cn1cncn1)c1ccc(F)cc1F)c1ccc(NC(=O)Nc2ccc(Cl)cc2)cc1 (centres unmarked) [Compound 86, 3-{N-[4-(p-Chlorophenylureido)-phenyl]-N-methyl}-2-(2,4-difluorophenyl)-1-(1H-1,2,4-triazolyl)-propan-3-amino-2-ol] | >12.5 |
| CN(CC(O)(Cn1cncn1)c1ccc(F)cc1F)c1ccc(NC(=O)Nc2ccc(NC(=S)Nc3ccc(Cl)cc3)cc2)cc1 (centres unmarked) [Compound 89, 3-{N-[4-((p-Chlorophenylthioureido)-phenylureido)-phenyl]-N-methyl}-2-(2,4-difluorophenyl)-1-(1H-1,2,4-triazolyl)-propan-3-amino-2-ol] | >12.5 |
| 3-{4-[4-(4-chlorophenyl-N-ethylureido)-piperazinyl]-phenoxy}-2-(2,4-difluorophenyl)-1-(1H-1,2,4-triazolyl)-propan-3-amino-2-ol [Compound 73] | >12.5 |
| O=C(Nc1ccc(Cl)cc1)NN1CCN(c2ccc(-n3cnn(CC(O)(Cn4cncn4)c4ccc(F)cc4F)c3=O)cc2)CC1 (centres unmarked) [Compound 91, 2-[2-(2,4-Difluorophenyl)-2-hydroxy-3-(1H-1,2,4-triazol-1-yl)propyl]-4-{4-[4-(4-chlorophenyluredio)-1-piperazinyl]phenyl}-3-(2H,4H)-1,2,4-triazolone] | >12.5 |
| COC(=O)Cc1ccc(NC(=O)Nc2ccc(N(C)CC(O)(Cn3cncn3)c3ccc(F)cc3F)cc2)cc1 (centres unmarked) [Compound 88, 3-{N-[4-((2-Methoxy-2-oxoethyl)-phenylureido)-phenyl]-N-methyl}-2-(2,4-difluorophenyl)-1-(1H-1,2,4-triazolyl)-propan-3-amino-2-ol] | >12.5 |
| Nc1ccc(NC(=O)NN2CCN(c3ccc(OCC(O)(Cn4cncn4)c4ccc(F)cc4F)cc3)CC2)cc1 (centres unmarked) [Compound 76, 3-{4-[4-(4-Aminophenylureido)piperazinyl]phenoxy}-2-(2,4-difluorophenyl)-1-(1H-1,2,4-triazol-1-yl)-propan-2-ol] | >12.5 |
| C[C@@H](Oc1ccc(N2CCN(NC(=O)Nc3ccc(Cl)cc3)CC2)cc1)[C@](O)(Cn1cncn1)c1ccc(F)cc1F [Compound 77, [1R2R/1S2S] 1-{4-[4-(4-Chlorophenylureido)-piperazinyl]-phenoxy}-2-(2,4-difluorophenyl)-1-methyl-3-(1H-1,2,4-triazolyl)-propan-2-ol] | 2 (≈ 3.34 µM) |
| COc1ccc(NC(=O)NN2CCN(c3ccc(OCC(O)(Cn4cncn4)c4ccc(F)cc4F)cc3)CC2)cc1 (centres unmarked) [Compound 71, 3-{4-[4-(4-Methoxyphenylureido)piperazinyl]phenoxy}-2-(2,4-difluorophenyl)-1-(1H-1,2,4-triazol-1-yl)-propan-2-ol] | >12.5 |
| CC(C)NC(=S)NN1CCN(c2ccc(OCC(O)(Cn3cncn3)c3ccc(F)cc3F)cc2)CC1 (centres unmarked) [Compound 65, 3-{4-[4-(Isopropylaminothiocarbonylamino)piperazinyl]phenoxy}-2-(2,4-difluorophenyl)-1-(1H-1,2,4-triazol-1-yl)-propan-2-ol] | >12.5 |
| CC(Oc1ccc(N2CCN(NC(=O)Nc3ccc(Cl)cc3)CC2)cc1)C(O)(Cn1cncn1)c1ccc(F)cc1F (centres unmarked) [Compound 78, [1R2S/1S2R] 1-{4-[4-(4-Chlorophenylureido)-piperazinyl]-phenoxy}2-(2,4-difluorophenyl)-1-methyl-3-(1H-1,2,4-triazolyl)-propan-2-ol] | 0.5 (≈ 0.836 µM) |
| CN(CC(O)(Cn1cncn1)c1ccc(F)cc1F)c1ccc(NC(=O)Nc2ccc(F)cc2)cc1 (centres unmarked) [Compound 84, 3-{N-[4-(p-Fluorophenylureido)-phenyl]-N-methyl}-2-(2,4-difluorophenyl)-1-(1H-1,2,4-triazolyl)-propan-3-amino-2-ol] | >12.5 |
| CN(CC(O)(Cn1cncn1)c1ccc(F)cc1F)c1ccc(NC(=O)Nc2ccc([N+](=O)[O-])cc2)cc1 (centres unmarked) [Compound 85, 3-{N-[4-(p-nitrophenylureido)-phenyl]-N-methyl}-2-(2,4-Difluorophenyl)-1-(1H-1,2,4-triazolyl)-propan-3-amino-2-ol] | >12.5 |
| O=C(Nc1ccccc1)NN1CCN(c2ccc(OCC(O)(Cn3cncn3)c3ccc(F)cc3F)cc2)CC1 (centres unmarked) [Compound 80, 3-{4-[4-(Phenylureido)-piperazinyl]phenoxy}-2-(2,4-difluorophenyl)-1-(1H-1,2,4-triazol-1-yl)-propan-2-ol] | >12.5 |
| O=C(Nc1ccc(Cl)cc1)NN1CCN(c2ccc(OCC(O)(Cn3cncn3)c3ccc(F)cc3F)cc2)CC1 (centres unmarked) [Compound 67, 3-{4-[4-(4-Chlorophenylureido)piperazinyl]phenoxy}-2-(2,4-difluorophenyl)-1-(1H-1,2,4-triazol-1-yl)-propan-2-ol] | 6.25 (≈ 10.7 µM) |
| CN(CC(O)(Cn1cncn1)c1ccc(F)cc1F)c1ccc(NC(=S)Nc2ccccc2)cc1 (centres unmarked) [Compound 81, 3-{N-[4-(Phenylthioureido)-phenyl]-N-methyl}-2-(2,4-Difluorophenyl)-1-(1H-1,2,4-triazolyl)-propan-3-amino-2-ol] | >12.5 |
| O=C(Nc1cccc2ccccc12)NN1CCN(c2ccc(OCC(O)(Cn3cncn3)c3ccc(F)cc3F)cc2)CC1 (centres unmarked) [Compound 69, 3-{4-[4-(1-Napthylureido)piperazinyl]phenoxy}-2-(2,4-difluorophenyl)-1-(1H-1,2,4-triazol-1-yl)-propan-2-ol] | >12.5 |
| CC(C)NC(=S)Nc1ccc(N(C)CC(O)(Cn2cncn2)c2ccc(F)cc2F)cc1 (centres unmarked) [Compound 82, 3-{N-[4-(Isopropylthioureido)-phenyl]-N-methyl}-2-(2,4-difluorophenyl)-1-(1H-1,2,4-triazolyl)-propan-3-amino-2-ol] | >12.5 |
| Cc1ccc(NC(=S)NN2CCN(c3ccc(OCC(O)(Cn4cncn4)c4ccc(F)cc4F)cc3)CC2)cc1 (centres unmarked) [Compound 64, 3-{4-[4-(p-Tolylthioureido)piperazinyl]phenoxy}-2-(2,4-difluorophenyl)-1-(1H-1,2,4-trizol-1-yl)-propan-2-ol] | 3.12 (≈ 5.38 µM) |
